Read-outs that look alike come from different tables or passages of the source.
How the values were obtained:
human 5-HT1A receptor = target: T1, human 5-HT1A receptor (Homo sapiens, UniProt P08908); experiment: GPCR radioligand binding assay, [3H]-8-OH-DPAT displacement, HEK293 membranes
T1 construct: expressed in transfected cells
T1 sequence (P08908 1-422): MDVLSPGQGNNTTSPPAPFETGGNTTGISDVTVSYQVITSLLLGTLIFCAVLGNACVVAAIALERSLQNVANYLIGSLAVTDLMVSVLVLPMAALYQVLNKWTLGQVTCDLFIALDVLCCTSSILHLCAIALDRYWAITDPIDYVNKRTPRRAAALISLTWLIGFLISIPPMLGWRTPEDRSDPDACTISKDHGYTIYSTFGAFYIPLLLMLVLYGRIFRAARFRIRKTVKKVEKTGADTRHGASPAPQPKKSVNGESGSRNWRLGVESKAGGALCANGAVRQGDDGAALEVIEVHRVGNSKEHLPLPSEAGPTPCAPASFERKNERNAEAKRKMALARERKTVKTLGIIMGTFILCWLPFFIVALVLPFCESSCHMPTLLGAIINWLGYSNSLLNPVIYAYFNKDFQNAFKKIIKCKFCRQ

human 5-HT7b receptor = target: T2, human 5-HT7b receptor (Homo sapiens, UniProt P34969); experiment: GPCR radioligand binding assay, [3H]-5-CT displacement, HEK293 membranes
T2 construct: expressed in transfected cells
T2 sequence (P34969 1-432): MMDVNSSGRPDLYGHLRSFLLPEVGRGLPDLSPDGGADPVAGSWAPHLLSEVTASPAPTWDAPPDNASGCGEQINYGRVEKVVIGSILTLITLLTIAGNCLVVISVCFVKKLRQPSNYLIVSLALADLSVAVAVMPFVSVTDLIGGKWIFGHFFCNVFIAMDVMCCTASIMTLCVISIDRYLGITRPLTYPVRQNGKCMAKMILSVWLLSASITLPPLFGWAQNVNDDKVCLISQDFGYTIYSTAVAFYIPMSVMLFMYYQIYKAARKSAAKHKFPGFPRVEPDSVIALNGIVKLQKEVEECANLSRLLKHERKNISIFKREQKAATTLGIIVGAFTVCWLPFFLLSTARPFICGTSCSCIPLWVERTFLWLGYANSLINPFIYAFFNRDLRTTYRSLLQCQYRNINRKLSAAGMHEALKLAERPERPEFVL

human 5-HT6 receptor = target: T3, human 5-HT6 receptor (Homo sapiens, UniProt P50406); experiment: GPCR radioligand binding assay, [3H]-LSD displacement, HEK293 membranes
T3 construct: expressed in transfected cells
T3 sequence (P50406 whole entry): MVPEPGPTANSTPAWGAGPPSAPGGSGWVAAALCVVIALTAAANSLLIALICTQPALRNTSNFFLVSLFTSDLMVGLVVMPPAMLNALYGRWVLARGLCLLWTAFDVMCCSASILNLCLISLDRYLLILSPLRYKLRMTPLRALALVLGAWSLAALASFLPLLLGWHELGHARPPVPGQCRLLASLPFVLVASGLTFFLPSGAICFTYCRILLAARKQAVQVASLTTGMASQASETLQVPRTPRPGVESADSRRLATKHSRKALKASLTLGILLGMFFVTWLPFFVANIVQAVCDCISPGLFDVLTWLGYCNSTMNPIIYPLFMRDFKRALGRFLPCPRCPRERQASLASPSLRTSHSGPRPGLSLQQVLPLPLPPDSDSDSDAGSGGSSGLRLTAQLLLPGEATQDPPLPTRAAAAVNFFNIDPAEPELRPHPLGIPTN

bovine factor Xa = target: T4, bovine factor Xa (Bos taurus, UniProt P00743); experiment: Protease inhibitory assay, chromogenic substrate S-2222; format: biochemical
T4 construct: bovine factor Xa, Chromogenix, 2 nkat/mL; purchased Chromogenix
T4 sequence (P00743 234-492 limits assumed): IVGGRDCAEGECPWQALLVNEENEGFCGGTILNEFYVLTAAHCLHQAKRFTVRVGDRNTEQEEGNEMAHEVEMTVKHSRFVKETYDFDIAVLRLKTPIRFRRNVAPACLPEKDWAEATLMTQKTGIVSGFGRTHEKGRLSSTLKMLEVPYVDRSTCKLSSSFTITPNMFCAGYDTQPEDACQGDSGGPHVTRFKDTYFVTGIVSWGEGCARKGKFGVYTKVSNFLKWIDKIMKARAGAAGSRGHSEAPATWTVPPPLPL
T4 sequence (P00743 41-180 partner limits assumed): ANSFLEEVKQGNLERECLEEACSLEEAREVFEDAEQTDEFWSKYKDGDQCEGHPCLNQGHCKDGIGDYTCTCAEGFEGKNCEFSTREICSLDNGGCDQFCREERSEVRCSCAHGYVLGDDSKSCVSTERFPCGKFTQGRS

[1] = 10 µM, read-out: 5-HT1A % Inhibition by plate position
[2] = 5-HT1A, average of exp_1 and exp_2, read-out: %inh 5-HT1A average
[3] = 5-HT1A, average, values below 0 and above 100% were set as 0 and 100, read-out: %inh 5-HT1A corrected*
[4] = 5-HT1A, replicate exp_1, read-out: %inh 5-HT1A exp_1
[5] = 5-HT1A, replicate exp_2, read-out: %inh 5-HT1A exp_2
[6] = 10 µM, read-out: 5-HT7 % Inhibition by plate position
[7] = 5-HT7, average of exp_1 and exp_2, read-out: %inh 5-HT7 average
[8] = 5-HT7, average, values below 0 and above 100% were set as 0 and 100, read-out: %inh 5-HT7 corrected*
[9] = 5-HT7, replicate exp_1, read-out: %inh 5-HT7 exp_1
[10] = 5-HT7, replicate exp_2, read-out: %inh 5-HT7 exp_2
[11] = 10 µM, read-out: 5-HT6 % Inhibition by plate position
[12] = 5-HT6, average of exp_1 and exp_2, read-out: %inh 5-HT6 average
[13] = 5-HT6, average, values below 0 and above 100% were set as 0 and 100, read-out: %inh 5-HT6 corrected*
[14] = 5-HT6, replicate exp_1, read-out: %inh 5-HT6 exp_1
[15] = 5-HT6, replicate exp_2, read-out: %inh 5-HT6 exp_2
[16] = plate layout, label = plate position, Cheng-Prusoff, Km 164 µM, read-out: Factor Xa Ki
[17] = 5-HT1A, average of exp_1 and exp_2
[18] = 5-HT6, average of exp_1 and exp_2
[19] = 5-HT6, average, values below 0 and above 100% were set as 0 and 100
[20] = 5-HT1A, average, values below 0 and above 100% were set as 0 and 100
[21] = 5-HT7, average of exp_1 and exp_2

Structure (SMILES)	5-HT1A % Inhibition by plate position (human 5-HT1A receptor; 10 µM)	%inh 5-HT1A average (human 5-HT1A receptor; [17])	%inh 5-HT1A exp_1 (human 5-HT1A receptor; 5-HT1A, replicate exp_1)	%inh 5-HT1A exp_2 (human 5-HT1A receptor; 5-HT1A, replicate exp_2)	5-HT7 % Inhibition by plate position (human 5-HT7b receptor; 10 µM)	%inh 5-HT7 exp_1 (human 5-HT7b receptor; 5-HT7, replicate exp_1)	%inh 5-HT7 exp_2 (human 5-HT7b receptor; 5-HT7, replicate exp_2)	5-HT6 % Inhibition by plate position (human 5-HT6 receptor; 10 µM)	%inh 5-HT6 average (human 5-HT6 receptor; [18])	%inh 5-HT6 corrected* (human 5-HT6 receptor; [19])	%inh 5-HT6 exp_1 (human 5-HT6 receptor; 5-HT6, replicate exp_1)	%inh 5-HT6 exp_2 (human 5-HT6 receptor; 5-HT6, replicate exp_2)	%inh 5-HT1A corrected* (human 5-HT1A receptor; [20])	other results
COc1ccccc1CC1CCNCC1 [B12]														inhibition at 10 µM (human 5-HT1A receptor; read-out: 5-HT1A % Inhibition by plate position): 50%; inhibition at 10 µM (human 5-HT1A receptor; read-out: %inh 5-HT1A average): 50%; inhibition at 10 µM (human 5-HT1A receptor; read-out: %inh 5-HT1A corrected*): 50%; inhibition at 10 µM (human 5-HT1A receptor; read-out: %inh 5-HT1A exp_1): 52%; inhibition at 10 µM (human 5-HT1A receptor; read-out: %inh 5-HT1A exp_2): 48%; inhibition at 10 µM (human 5-HT7b receptor; read-out: 5-HT7 % Inhibition by plate position): 54%; inhibition at 10 µM (human 5-HT7b receptor; read-out: %inh 5-HT7 average): 54%; inhibition at 10 µM (human 5-HT7b receptor; read-out: %inh 5-HT7 corrected*): 54%; inhibition at 10 µM (human 5-HT7b receptor; read-out: %inh 5-HT7 exp_1): 45%; inhibition at 10 µM (human 5-HT7b receptor; read-out: %inh 5-HT7 exp_2): 63%; inhibition at 10 µM (human 5-HT6 receptor; read-out: 5-HT6 % Inhibition by plate position): 76%; inhibition at 10 µM (human 5-HT6 receptor; read-out: %inh 5-HT6 average): 76%; inhibition at 10 µM (human 5-HT6 receptor; read-out: %inh 5-HT6 corrected*): 76%; inhibition at 10 µM (human 5-HT6 receptor; read-out: %inh 5-HT6 exp_1): 84%; inhibition at 10 µM (human 5-HT6 receptor; read-out: %inh 5-HT6 exp_2): 68%; Ki (bovine factor Xa): 401 µM
Cn1c(N)nc2ccccc21 [A6]														inhibition at 10 µM (human 5-HT1A receptor; [1]): 0%; inhibition at 10 µM (human 5-HT1A receptor; [2]): -7%; inhibition at 10 µM (human 5-HT1A receptor; [3]): 0%; inhibition at 10 µM (human 5-HT1A receptor; [4]): -18%; inhibition at 10 µM (human 5-HT1A receptor; [5]): 3%; inhibition at 10 µM (human 5-HT7b receptor; [6]): 0%; inhibition at 10 µM (human 5-HT7b receptor; [7]): -10%; inhibition at 10 µM (human 5-HT7b receptor; [8]): 0%; inhibition at 10 µM (human 5-HT7b receptor; [9]): -3%; inhibition at 10 µM (human 5-HT7b receptor; [10]): -18%; inhibition at 10 µM (human 5-HT6 receptor; [11]): 25%; inhibition at 10 µM (human 5-HT6 receptor; [12]): 25%; inhibition at 10 µM (human 5-HT6 receptor; [13]): 25%; inhibition at 10 µM (human 5-HT6 receptor; [14]): 22%; inhibition at 10 µM (human 5-HT6 receptor; [15]): 29%; Ki (bovine factor Xa; [16]): 277 µM
c1ccc(Nc2nncs2)cc1 [D8]														inhibition at 10 µM (human 5-HT1A receptor; [1]): 0%; inhibition at 10 µM (human 5-HT1A receptor; [2]): -2.41%; inhibition at 10 µM (human 5-HT1A receptor; [3]): 0%; inhibition at 10 µM (human 5-HT1A receptor; [4]): -10%; inhibition at 10 µM (human 5-HT1A receptor; [5]): 5.56%; inhibition at 10 µM (human 5-HT7b receptor; [6]): 0%; inhibition at 10 µM (human 5-HT7b receptor; [7]): -12%; inhibition at 10 µM (human 5-HT7b receptor; [8]): 0%; inhibition at 10 µM (human 5-HT7b receptor; [9]): -3.33%; inhibition at 10 µM (human 5-HT7b receptor; [10]): -21%; inhibition at 10 µM (human 5-HT6 receptor; [11]): 1.55%; inhibition at 10 µM (human 5-HT6 receptor; [12]): 1.55%; inhibition at 10 µM (human 5-HT6 receptor; [13]): 1.55%; inhibition at 10 µM (human 5-HT6 receptor; [14]): 9%; inhibition at 10 µM (human 5-HT6 receptor; [15]): -6%; Ki (bovine factor Xa; [16]): 733 µM
O=C1NC(=O)/C(=C\c2cccs2)N1 [H12]														inhibition at 10 µM (human 5-HT1A receptor; [1]): 3.44%; inhibition at 10 µM (human 5-HT1A receptor; [2]): 3.44%; inhibition at 10 µM (human 5-HT1A receptor; [3]): 3.44%; inhibition at 10 µM (human 5-HT1A receptor; [4]): 7%; inhibition at 10 µM (human 5-HT1A receptor; [5]): -0.195%; inhibition at 10 µM (human 5-HT7b receptor; [6]): 3.77%; inhibition at 10 µM (human 5-HT7b receptor; [7]): 3.77%; inhibition at 10 µM (human 5-HT7b receptor; [8]): 3.77%; inhibition at 10 µM (human 5-HT7b receptor; [9]): 6%; inhibition at 10 µM (human 5-HT7b receptor; [10]): 1.68%; inhibition at 10 µM (human 5-HT6 receptor; [11]): 32%; inhibition at 10 µM (human 5-HT6 receptor; [12]): 32%; inhibition at 10 µM (human 5-HT6 receptor; [13]): 32%; inhibition at 10 µM (human 5-HT6 receptor; [14]): 31%; inhibition at 10 µM (human 5-HT6 receptor; [15]): 32%; Ki (bovine factor Xa): 466 µM
N#CCCN1CCc2ccccc21 [F4]	0%	-7%	-1.29%	-12%	3%	1.81%	4.42%	23%	23%	23%	26%	20%		
O=C1CCC(=O)N(c2ccccc2)N1 [H7]		6%	7%	5.53%	24%	27%	21%	22%	22%	22%	24%	20%	6%	
CCN(CC)c1cccc(C)c1 [E4]		8.49%	13%	4%	7.56%	12%	2.81%	31%	31%	31%	31%	32%	8.49%	
O=C(O)C1CCCN(C(=O)N2CCCC2)C1 (stereo not drawn) [G6]		5%	1%	9%	8.53%	10%	7%	27%	27%	27%	29%	25%	5%	
O=C(CN1CCCC1)c1ccccc1Cl [G10]		78%	77%	79%	3.47%	8%	-1%	19%	19%	19%	17%	20%	78%	
Nc1ccc(SC(F)F)cc1 [D1]	0%	-16%	-6.6%	-25%	8%	5.58%	10%	45%	45%	45%	52%	38%		
O=c1[nH]c2c(s1)CCC2 [C10]	0%	-4%	2.56%	-11%	0.592%	-6.56%	8%	42%	42%	42%	44%	39%		
CC1C(=O)NC(=O)N1c1ccc(Cl)cc1 (stereo not drawn) [E3]	0%	-4%	5%	-13%	17%	19%	14%	43%	43%	43%	41%	44%		
N[C@H]1c2ccccc2C[C@H]1CO [B5]	0%	-0.612%	-19%	18%	6%	14%	-1%	25%	25%	25%	25%	25%		
CS(=O)(=O)c1ccc(OC(F)(F)F)cc1 [B8]	0%	-30%	-20%	-40%	6%	3.74%	8%	4%	4%	4%	0%	8%		
FC1(F)CNCC(F)(F)O1 [H3]	0%	-7%	9%	-23%	0%	-4%	-10%	36%	36%	36%	40%	31%		%inh 5-HT7 average (human 5-HT7b receptor; [21]): -7%
CC(=O)c1ccc2c(c1)CCCN2 [C7]		2.29%	-2%	6.6%	0%	-14%	-18%	9%	9%	9%	10%	8%	2.29%	%inh 5-HT7 average (human 5-HT7b receptor; [21]): -16%

— publication PMC8159961, “Exploring protein hotspots by optimized fragment pharmacophores” (Nature Communications, 2021)
